ChEMBL document CHEMBL1649195, “Tetracyclines modulate protease-activated receptor 2-mediated proinflammatory reactions in epidermal keratinocytes” (Antimicrob Agents Chemother, 2009)
Activity calls are given as the source filed them. The rule behind the calls is not given here.

What was measured:
[1] = molecular target: Proteinase-activated receptor 2 (Homo sapiens) (UniProt P55085); assay: Inhibition of PAR2-mediated TNFalpha and SLIGKV-NH2-induced interleukin-8 production in normal human epidermal keratinocytes at 10 uM by ELISA
Proteinase-activated receptor 2 (Homo sapiens), sequence (P55085 whole entry): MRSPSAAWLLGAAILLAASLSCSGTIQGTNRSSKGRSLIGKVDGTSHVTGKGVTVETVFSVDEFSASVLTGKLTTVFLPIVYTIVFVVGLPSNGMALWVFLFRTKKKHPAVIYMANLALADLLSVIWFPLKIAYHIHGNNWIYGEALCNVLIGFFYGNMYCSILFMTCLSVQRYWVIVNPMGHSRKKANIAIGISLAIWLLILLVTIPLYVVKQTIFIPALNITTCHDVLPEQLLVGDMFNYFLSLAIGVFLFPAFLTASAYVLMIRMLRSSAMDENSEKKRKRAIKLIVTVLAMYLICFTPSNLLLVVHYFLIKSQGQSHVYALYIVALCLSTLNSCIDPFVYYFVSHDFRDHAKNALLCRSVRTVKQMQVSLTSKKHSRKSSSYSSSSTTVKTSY

[2] = molecular target: Proteinase-activated receptor 2 (Homo sapiens) (UniProt P55085); assay: Inhibition of PAR2 gene expression in normal human epidermal keratinocytes at 10 uM after 48 hrs by quantitative RT-PCR
[3] = molecular target: Proteinase-activated receptor 2 (Homo sapiens) (UniProt P55085); assay: Inhibition of PAR2-mediated IL1-beta and SLIGKV-NH2-induced interleukin-8 production in normal human epidermal keratinocytes at 10 uM by ELISA
[4] = Cytotoxicity against normal human epidermal keratinocytes at 100 uM after 72 hrs by MTT assay; type: cell-based; details: keratinocyte
[5] = Cytotoxicity against normal human epidermal keratinocytes at 5 uM after 72 hrs by MTT assay; type: cell-based; details: keratinocyte
[6] = molecular target: Proteinase-activated receptor 2 (Homo sapiens) (UniProt P55085); assay: Inhibition of PAR2-mediated SLIGKV-NH2-induced interleukin-8 production in normal human epidermal keratinocytes at 10 uM after 24 hrs by ELISA
[7] = molecular target: Proteinase-activated receptor 2 (Homo sapiens) (UniProt P55085); assay: Inhibition of PAR2-mediated SLIGKV-NH2-induced interleukin-8 production in normal human epidermal keratinocytes at 5 uM after 24 hrs by ELISA
[8] = Cytotoxicity against normal human epidermal keratinocytes at 10 uM after 72 hrs by MTT assay; type: cell-based; details: keratinocyte

Structure (SMILES)	Activity [1]	Activity [2]	Activity [3]	Activity [6]	Activity [7]	Activity [4]	Activity [5]	Activity [8]
CC[C@H]1OC(=O)[C@H](C)[C@@H](O[C@H]2C[C@@](C)(OC)[C@@H](O)[C@H](C)O2)[C@H](C)[C@@H](O[C@@H]2O[C@H](C)C[C@H](N(C)C)[C@H]2O)[C@](C)(OC)C[C@@H](C)C(=O)[C@H](C)[C@@H](O)[C@]1(C)O	inactive	–	–	–	–	–	–	–
CN(C)[C@@H]1C(O)=C(C(N)=O)C(=O)[C@@]2(O)C(O)=C3C(=O)c4c(O)cccc4[C@@](C)(O)[C@H]3C[C@@H]12 [TETRACYCLINE]	Active	inactive	inactive	Active	Active	Toxic	Non-toxic	Non-toxic
CC[C@H]1OC(=O)[C@H](C)[C@@H](O[C@H]2C[C@@](C)(OC)[C@@H](O)[C@H](C)O2)[C@H](C)[C@@H](O[C@@H]2O[C@H](C)C[C@H](N(C)C)[C@H]2O)[C@](C)(O)C[C@@H](C)/C(=N\OCOCCOC)[C@H](C)[C@@H](O)[C@]1(C)O	inactive	–	–	–	–	–	–	–

The next lines start with results.

Activity [1]	Activity [2]	Activity [3]	Activity [6]	Activity [7]	Structure (SMILES)	Activity [4]	Activity [5]	Activity [8]
Active	inactive	Active	Active	Active	C[C@H]1c2cccc(O)c2C(=O)C2=C(O)[C@]3(O)C(=O)C(C(N)=O)=C(O)[C@@H](N(C)C)[C@@H]3[C@@H](O)[C@@H]21.O [DOXYCYCLINE]	Toxic	Non-toxic	Non-toxic
Active	inactive	Active	Active	Active	CN(C)c1ccc(O)c2c1C[C@H]1C[C@H]3[C@H](N(C)C)C(O)=C(C(N)=O)C(=O)[C@@]3(O)C(O)=C1C2=O [MINOCYCLINE]	Toxic	Non-toxic	Non-toxic
